≈ marks a conversion by molar mass, not a printed value.
Tested on: L929
Test: Cytotoxicity against mouse L929 cells
Format: cell-based

C/C1=C/C[C@@H](/C(C)=C/c2csc(C)n2)OC(=O)C[C@H](O)[C@H](C)C(=O)[C@H](C)[C@@H](O)[C@@H](C)CC(C)CCC1 (some centres not stated) [EPOTHILONE I5]
IC50 (read-out: IC50): 0.1 µg/mL (≈ 0.192 µM)

C/C(=C\c1csc(C)n1)[C@@H]1C/C=C\CCC[C@H](C)[C@H](O)[C@@H](C)C(=O)[C@@H](C)[C@@H](O)CC(=O)O1 [EPOTHILONE C2]
IC50 (read-out: IC50): 0.8 µg/mL (≈ 1.73 µM)

C/C(=C\c1csc(C)n1)[C@@H]1C/C=C\CCC[C@H](C)[C@H](O)CC(=O)C(C)(C)[C@@H](O)CC(=O)O1 [EPOTHILONE C3]
IC50 (read-out: IC50): 1.5 µg/mL (≈ 3.24 µM)

C/C1=C/C[C@@H](/C(C)=C/c2csc(C)n2)OC(=O)C[C@H](O)C(C)(C)C(=O)[C@H](C)[C@@H](O)[C@@H](C)CCC1 [EPOTHILONE D]
IC50 (read-out: IC50): 0.02 µg/mL (≈ 0.0407 µM)

C/C(=C\c1csc(C)n1)[C@@H]1C[C@@H]2O[C@@H]2CCC[C@H](C)[C@H](O)[C@@H](C)C(=O)[C@@H](C)[C@@H](O)CC(=O)O1 [EPOTHILONE A2]
IC50 (read-out: IC50): 0.007 µg/mL (≈ 0.0146 µM)

C/C1=C/C[C@@H](/C(C)=C/c2csc(C)n2)OC(=O)C[C@H](O)[C@H](C)C(=O)[C@H](C)[C@@H](O)[C@@H](C)CCC1 [EPOTHILONE D2]
IC50 (read-out: IC50): 0.007 µg/mL (≈ 0.0147 µM)

CCC(=O)[C@@H](C)CCC/C(C)=C\C[C@H](O)/C(C)=C/c1csc(C)n1
IC50 (read-out: IC50): > 4 µg/mL

C/C(=C\c1csc(C)n1)[C@@H]1C/C=C\CCCC(C)C[C@H](C)[C@H](O)[C@@H](C)C(=O)C(C)(C)[C@@H](O)CC(=O)O1 (some centres not stated) [EPOTHILONE I2]
IC50 (read-out: IC50): 0.4 µg/mL (≈ 0.77 µM)

C/C(=C\c1csc(C)n1)[C@@H]1C[C@@H]2O[C@]2(C)CCC[C@H](C)[C@H](O)[C@@H](C)C(=O)C(C)(C)[C@@H](O)CC(=O)O1 [PATUPILONE]
IC50 (read-out: IC50): 0.001 µg/mL (≈ 0.00197 µM)

C/C(=C\c1csc(C)n1)[C@@H]1C/C=C\CCCC[C@H](O)[C@@H](C)C(=O)C(C)(C)[C@@H](O)CC(=O)O1 [EPOTHILONE C4]
IC50 (read-out: IC50): 0.8 µg/mL (≈ 1.73 µM)

C/C(=C\c1csc(C)n1)[C@@H]1C/C=C\CCCC(C)C[C@H](C)[C@H](O)[C@@H](C)C(=O)[C@@H](C)[C@@H](O)CC(=O)O1 (some centres not stated) [EPOTHILONE I4]
IC50 (read-out: IC50): 0.3 µg/mL (≈ 0.593 µM)

C/C1=C/C[C@@H](/C(C)=C/c2coc(C)n2)OC(=O)C[C@H](O)C(C)(C)C(=O)[C@H](C)[C@@H](O)[C@@H](C)CCC1 [EPOTHILONE H2]
IC50 (read-out: IC50): 0.011 µg/mL (≈ 0.0231 µM)

C/C1=C/C[C@@H](/C(C)=C/c2csc(C)n2)OC(=O)C[C@H](O)[C@@H](C)C(=O)[C@H](C)[C@@H](O)[C@@H](C)CCC1 [EPOTHILONE D1]
IC50 (read-out: IC50): 0.035 µg/mL (≈ 0.0733 µM)

C/C(=C\c1csc(CO)n1)[C@@H]1C[C@@H]2O[C@@H]2CCC[C@H](C)[C@H](O)[C@@H](C)C(=O)C(C)(C)[C@@H](O)CC(=O)O1 [EPOTHILONE E]
IC50 (read-out: IC50): 0.01 µg/mL (≈ 0.0196 µM)

C/C(=C\c1coc(C)n1)[C@@H]1C/C=C\CCC[C@H](C)[C@H](O)[C@@H](C)C(=O)C(C)(C)[C@@H](O)CC(=O)O1 [EPOTHILONE H1]
IC50 (read-out: IC50): 0.12 µg/mL (≈ 0.26 µM)

C/C(=C\c1csc(C)n1)[C@@H]1C/C=C\CCC[C@H](C)[C@H](O)[C@@H](C)C(=O)[C@H](C)[C@@H](O)CC(=O)O1 [EPOTHILONE C1]
IC50 (read-out: IC50): 0.9 µg/mL (≈ 1.94 µM)

C/C(=C\c1csc(C)n1)[C@@H]1C/C=C\CC/C=C(\C)[C@H](O)[C@@H](C)C(=O)C(C)(C)[C@@H](O)CC(=O)O1 [EPOTHILONE C5]
IC50 (read-out: IC50): 1.5 µg/mL (≈ 3.15 µM)

C/C(=C\c1csc(C)n1)[C@@H]1C/C=C/CCC[C@H](C)[C@H](O)[C@@H](C)C(=O)[C@H](C)[C@@H](O)CC(=O)O1
IC50: 0.08 µg/mL (≈ 0.173 µM)

C/C(=C\c1coc(C)n1)[C@@H]1C[C@@H]2O[C@@H]2CCC[C@H](C)[C@H](O)[C@@H](C)C(=O)C(C)(C)[C@@H](O)CC(=O)O1 [EPOTHILONE G1]
IC50 (read-out: IC50): 0.006 µg/mL (≈ 0.0126 µM)

C/C(=C\c1csc(C)n1)[C@@H]1C[C@@H]2O[C@@H]2CCC[C@H](C)[C@H](O)[C@@H](C)C(=O)[C@H](C)[C@@H](O)CC(=O)O1 [EPOTHILONE A1]
IC50 (read-out: IC50): 0.02 µg/mL (≈ 0.0417 µM)

Cc1nc(/C=C(\CO)[C@@H]2C[C@@H]3O[C@@H]3CCC[C@H](C)[C@H](O)[C@@H](C)C(=O)C(C)(C)[C@@H](O)CC(=O)O2)cs1 [EPOTHILONE A9]
IC50 (read-out: IC50): 0.1 µg/mL (≈ 0.196 µM)

Cc1nc(/C=C/[C@@H]2C[C@@H]3O[C@@H]3CCC[C@H](C)[C@H](O)[C@@H](C)C(=O)C(C)(C)[C@@H](O)CC(=O)O2)cs1 [EPOTHILONE A8]
IC50 (read-out: IC50): 0.02 µg/mL (≈ 0.0417 µM)

C/C(=C\c1csc(C)n1)[C@H]1OC(=O)C[C@H](O)C(C)(C)C(=O)[C@H](C)[C@@H](O)[C@@H](C)CCC/C=C\[C@@H]1O [EPOTHILONE C7]
IC50 (read-out: IC50): 0.025 µg/mL (≈ 0.0506 µM)

Cc1nc(/C=C(\CO)[C@@H]2C/C=C\CCC[C@H](C)[C@H](O)[C@@H](C)C(=O)C(C)(C)[C@@H](O)CC(=O)O2)cs1 [EPOTHILONE C9]
IC50 (read-out: IC50): 0.2 µg/mL (≈ 0.405 µM)

C/C(=C\c1coc(C)n1)[C@@H]1C[C@@H]2O[C@]2(C)CCC[C@H](C)[C@H](O)[C@@H](C)C(=O)C(C)(C)[C@@H](O)CC(=O)O1 [EPOTHILONE G2]
IC50 (read-out: IC50): 0.001 µg/mL (≈ 0.00203 µM)

C/C1=C/C[C@@H](/C(C)=C/c2csc(C)n2)OC(=O)C[C@H](O)C(C)(C)C(=O)[C@H](C)[C@@H](O)[C@@H](C)CC(C)CCC1 (some centres not stated) [EPOTHILONE I3]
IC50 (read-out: IC50): 0.6 µg/mL (≈ 1.12 µM)

C/C(=C\c1csc(C)n1)[C@@H]1C/C=C\CCC[C@H](C)[C@H](O)[C@@H](C)C(=O)C(C)(C)[C@@H](O)CC(=O)O1 [EPOTHILONE C]
IC50 (read-out: IC50): 0.06 µg/mL (≈ 0.126 µM)

Cc1nc(/C=C/[C@@H]2C/C=C\CCC[C@H](C)[C@H](O)[C@@H](C)C(=O)C(C)(C)[C@@H](O)CC(=O)O2)cs1 [EPOTHILONE C8]
IC50 (read-out: IC50): 0.25 µg/mL (≈ 0.539 µM)

C/C(=C\c1csc(C)n1)[C@@H](O)C/C=C\CCC[C@H](C)[C@H](O)[C@@H](C)C(=O)C(C)C
IC50 (read-out: IC50): 0.8 µg/mL (≈ 1.96 µM)

C/C(=C\c1csc(C)n1)[C@@H]1C[C@@H]2O[C@@H]2CCC[C@H](C)[C@H](O)[C@@H](C)C(=O)C(C)(C)[C@@H](O)CC(=O)O1 [EPOTHILONE A]
IC50 (read-out: IC50): 0.004 µg/mL (≈ 0.0081 µM)

C/C(=C\c1csc(C)n1)[C@@H]1C/C=C/CCC[C@H](C)[C@H](O)[C@@H](C)C(=O)[C@@H](C)[C@@H](O)CC(=O)O1
IC50: 0.4 µg/mL (≈ 0.863 µM)

C/C(=C\c1csc(CO)n1)[C@@H]1C[C@@H]2O[C@]2(C)CCC[C@H](C)[C@H](O)[C@@H](C)C(=O)C(C)(C)[C@@H](O)CC(=O)O1 [EPOTHILONE F]
IC50 (read-out: IC50): 0.0015 µg/mL (≈ 0.00286 µM)

C/C1=C/C[C@@H](/C(C)=C/c2csc(C)n2)OC(=O)C[C@H](O)[C@@H](C)C(=O)[C@H](C)[C@@H](O)[C@@H](C)CC(C)CCC1 (some centres not stated) [EPOTHILONE I6]
IC50 (read-out: IC50): 0.6 µg/mL (≈ 1.15 µM)

C/C1=C/C[C@@H](/C(C)=C/c2csc(C)n2)OC(=O)C[C@H](O)C(C)(C)C(=O)[C@H](C)[C@@H](O)/C(C)=C/CC1 [EPOTHILONE D5]
IC50 (read-out: IC50): 0.2 µg/mL (≈ 0.408 µM)

C/C(=C\c1csc(C)n1)[C@@H]1C/C=C\CCCCC[C@H](C)[C@H](O)[C@@H](C)C(=O)C(C)(C)[C@@H](O)CC(=O)O1 [EPOTHILONE I1]
IC50 (read-out: IC50): 0.8 µg/mL (≈ 1.58 µM)

CCC(=O)[C@@H](C)CCC/C=C\C[C@H](O)/C(C)=C/c1csc(C)n1
IC50 (read-out: IC50): > 4 µg/mL

C/C(=C\c1csc(C)n1)[C@@H]1C/C=C\C=C\C[C@H](C)[C@H](O)[C@@H](C)C(=O)C(C)(C)[C@@H](O)CC(=O)O1 [EPOTHILONE C6]
IC50 (read-out: IC50): 0.12 µg/mL (≈ 0.252 µM)

From ChEMBL document CHEMBL1155715, “New natural epothilones from Sorangium cellulosum, strains So ce90/B2 and So ce90/D13: isolation, structure elucidation, and SAR studies” (J Nat Prod, 2001)
